Entries after “also recorded” stand apart in the source; their conditions may differ.
What was measured:
[1] = Phase 1b trial NCT04179474, plasma ubrogepant pharmacokinetics, erenumab arm (Part 1); type: in vivo, human; conditions: for half-life: read-out: t1/2, mean (converted)
Description: (§1) A two-part, multi-center, open-label, phase 1b trial (NCT04179474) in 40 adults (aged 18-50 years) diagnosed with migraine was conducted to evaluate the impact of erenumab or galcanezumab on the pharmacokinetics (PK), safety, and tolerability of ubrogepant in patients with migraine.
(§2) This open-label, multicenter trial enrolled adults diagnosed for greater than or equal to one year with migraine not on preventive treatment. Participants were assigned to an erenumab arm (Part 1) or a galcanezumab arm (Part 2). In each arm, participants received ubrogepant 100 mg on day 1 (without an antibody). On day 8, participants received the assigned monoclonal antibody: single subcutaneous (SC) erenumab 140 mg injection (Part 1) or galcanezumab 240 mg (2 SC 120 mg injections) (Part 2). Ubrogepant 100 mg was administered once daily on days 12-15. Participants were followed for 30 days.
(§3) Of 40 enrolled participants, 20 were included in part 1 (n=20 ubrogepant, n=19 erenumab, and n=19 co-administered ubrogepant and erenumab) and 20 were included in part 2 (n=20 ubrogepant, n=20 galcanezumab, and n=19 co-administered ubrogepant and galcanezumab).
(§4) PK parameters, derived from plasma ubrogepant concentrations in blood collected at prespecified time points over 24 hours post-dose on days 1 and 12, included area under the curve from time 0 to time t (AUC0-t) or to infinity (AUC0-∞); peak plasma concentration (Cmax), time to Cmax (Tmax); and apparent terminal half life (t1/2). Safety outcomes included incidence of adverse events (AEs; daily and through follow-up), and laboratory values, vital signs, and electrocardiogram (ECG) results (at prespecified timepoints pre- and post-dose). Log-transformed Cmax, AUC0-t, and […] , for ubrogepant with and without erenumab or galcanezumab with 90% CI were constructed.

[2] = Phase 1b trial NCT04179474, plasma ubrogepant pharmacokinetics, galcanezumab arm (Part 2); type: in vivo, human; conditions: for AUC(0-t): 100 mg
Description: as §1, §2
Of 40 enrolled participants, 20 were included in part 1 (n=20 ubrogepant, n=19 erenumab, and n=19 co-administered ubrogepant and erenumab) and 20 were included in part 2 (n=20 ubrogepant, n=20 galcanezumab, […]).
as §4

[3] = Phase 1b trial NCT04179474, safety and tolerability (adverse events), erenumab arm (Part 1); set-up: species or system human; conditions: in vivo
Description: as §1, §2, §3, §4

[4] = Phase 1b trial NCT04179474, safety and tolerability (adverse events), galcanezumab arm (Part 2); set-up: species or system human; conditions: in vivo
Description: as §1, §2, §3, §4

CYP enzymes = conditions: general statement, no test described; cited from earlier work
[5] = erenumab arm, ubrogepant 100 mg alone, day 1, n = 20
[6] = galcanezumab arm, ubrogepant 100 mg alone, day 1, n = 20

Q: With `C[C@@H]1[C@H](c2ccccc2)C[C@H](NC(=O)c2cnc3c(c2)C[C@@]2(C3)C(=O)Nc3ncccc32)C(=O)N1CC(F)(F)F` [Ubrogepant, ubrogepant] as the molecule, how does the “CL/F, mean” value [1, 5] read?
A: 57.4 L/h

Q: What about the “t1/2, mean” value [1, 5] of the same molecule?
A: 4.6 h

Q: And the AUC(0-t) ([1]; human, plasma, oral, erenumab arm, ubrogepant 100 mg alone, day 1, read-out: AUC0-t, geometric LSM)?
A: 1780 ng·h/mL

Q: And the AUC(0-inf) ([1]; human, plasma, oral, erenumab arm, ubrogepant 100 mg alone, day 1, read-out: AUC0-∞, geometric LSM)?
A: 1810 ng·h/mL

Q: What about the Cmax ([1]; human, plasma, oral, erenumab arm, ubrogepant 100 mg alone, day 1, read-out: Cmax, geometric LSM) of the same molecule?
A: 431 ng/mL

Q: And the AUC(0-t) ([1]; human, plasma, other: extravascular administration, erenumab arm, ubrogepant 100 mg alone, day 1, n = 20, read-out: AUC0-t, mean)?
A: 1840 ng·h/mL

Q: What about the AUC(0-inf) ([1]; human, plasma, other: extravascular administration, erenumab arm, ubrogepant 100 mg alone, day 1, n = 20, read-out: AUC0-∞, mean) of the same molecule?
A: 1880 ng·h/mL

Q: And the Cmax ([1]; human, plasma, other: extravascular administration, erenumab arm, ubrogepant 100 mg alone, day 1, n = 20, read-out: Cmax, mean)?
A: 459 ng/mL

Q: And the Vd/F ([1]; human, plasma, other: extravascular administration, erenumab arm, ubrogepant 100 mg alone, day 1, n = 20, read-out: VZ/F, mean)?
A: 437 L

Q: What about the half-life ([1]; human, plasma, other: extravascular administration, erenumab arm, ubrogepant 100 mg alone, day 1, n = 20) of the same molecule?
A: 5.3 h

Q: What about the half-life ([1]; human, plasma, erenumab arm, ubrogepant 100 mg day 12, after SC erenumab 140 mg on day 8, n = 19) of the same molecule?
A: 5.3 h

Q: And the Tmax ([1]; human, plasma, erenumab arm, ubrogepant 100 mg day 12, after SC erenumab 140 mg on day 8, n = 19, read-out: tmax, median)?
A: 1.5 h

Q: And the “change in ubrogepant PK (Cmax, AUC0-t, AUC0-∞) after coadministration with erenumab versus alone” value ([1]; ubrogepant 100 mg, erenumab 140 mg SC)?
A: no significant change; also recorded: minimally elevated; also recorded: unchanged

Q: What about the “AUC0-∞, mean” value [2, 6] of the same molecule?
A: 1732.2 ng·h/mL

Q: And the “CL/F, mean” value [2, 6]?
A: 72.9 L/h

Q: And the “Cmax, mean” value [2, 6]?
A: 415.3 ng/mL

Q: What about the “t1/2, mean” value [2, 6] of the same molecule?
A: 4.6 h

Q: What about the AUC(0-t) ([2]; human, plasma, oral, galcanezumab arm, ubrogepant 100 mg alone, day 1, n = 20, read-out: AUC0-t, mean) of the same molecule?
A: 1700 ng·h/mL

Q: And the AUC(0-t) ([2]; human, plasma, oral, galcanezumab arm, ubrogepant 100 mg alone, day 1, read-out: AUC0-t, geometric LSM)?
A: 1510 ng·h/mL

Q: What about the Vd/F ([2]; human, plasma, oral, galcanezumab arm, ubrogepant 100 mg alone, day 1, n = 20, read-out: VZ/F, mean) of the same molecule?
A: 569 L

Q: And the AUC(0-inf) ([2]; human, plasma, oral, galcanezumab arm, ubrogepant 100 mg alone, day 1, read-out: AUC0-∞, geometric LSM)?
A: 1540 ng·h/mL

Q: What about the Cmax ([2]; human, plasma, oral, galcanezumab arm, ubrogepant 100 mg alone, day 1, read-out: Cmax, geometric LSM) of the same molecule?
A: 359 ng/mL

Q: And the Tmax ([2]; human, plasma, oral, galcanezumab arm, ubrogepant 100 mg day 12, after SC galcanezumab 240 mg on day 8, n = 20)?
A: 1.5 h

Q: And the half-life ([2]; human, plasma, oral, galcanezumab arm, ubrogepant 100 mg day 12, after SC galcanezumab 240 mg on day 8, n = 20, read-out: t1/2, mean (converted))?
A: 5 h

Q: What about the “change in ubrogepant PK (Cmax, AUC0-t, AUC0-28) after coadministration with galcanezumab versus alone” value ([2]; ubrogepant 100 mg, galcanezumab 240 mg SC) of the same molecule?
A: no significant change; also recorded: unchanged

Q: And the “change in ubrogepant Cmax with galcanezumab coadministration” value ([2]; vs ubrogepant alone)?
A: unchanged

Q: And the “increase in ubrogepant AUC0-t with galcanezumab coadministration” value ([2]; vs ubrogepant alone)?
A: 5%

Q: What about the “increase in ubrogepant AUC0-∞ with galcanezumab coadministration” value ([2]; vs ubrogepant alone) of the same molecule?
A: 5%

Q: And the “Abdominal Pain, participants” value ([3]; human)?
A: 0 participants

Q: What about the “Constipation, participants” value ([3]; human) of the same molecule?
A: 0 participants

Q: What about the “Flatulence, participants” value ([3]; human) of the same molecule?
A: 0 participants

Q: What about the “Headache, participants” value ([3]; human) of the same molecule?
A: 1 participants

Q: And the “Headache, participants (%)” value ([3]; human)?
A: (5.0) %

Q: What about the “Nasopharyngitis, participants” value ([3]; human) of the same molecule?
A: 1 participants

Q: What about the “Nasopharyngitis, participants (%)” value ([3]; human) of the same molecule?
A: (5.0) %

Q: What about the “Nausea, participants” value ([3]; human) of the same molecule?
A: 0 participants

Q: And the “Somnolence, participants” value ([3]; human)?
A: 1 participants

Q: And the “Somnolence, participants (%)” value ([3]; human)?
A: (5.0) %

Q: And the “TEAEs, participants (%)” value ([3]; human)?
A: (35.0) %

Q: What about the “Treatment Related AEs, participants (%)” value ([3]; human) of the same molecule?
A: (10.0) %

Q: And the “Upper Abdominal Pain, participants” value ([3]; human)?
A: 0 participants

Q: And the “safety concerns on co-administration” value [3]?
A: no safety concerns were identified

Q: What about the “Abdominal Discomfort, participants” value ([4]; human) of the same molecule?
A: 0 participants

Q: And the “Dizziness, participants” value ([4]; human)?
A: 0 participants

Q: And the “Headache, participants” value ([4]; human)?
A: 0 participants

Q: And the “Hiccups, participants” value ([4]; human)?
A: 0 participants

Q: What about the “TEAEs, participants (%)” value ([4]; human) of the same molecule?
A: (10.0) %

Q: And the “Upper Abdominal Pain, participants” value ([4]; human)?
A: 0 participants

Q: What about the “safety concerns on co-administration” value [4] of the same molecule?
A: no safety concerns were identified

B1: erenumab (antibody, chains of the INN, looked up, V domains shown)
VH: QVQLVESGGGVVQPGRSLRLSCAASGFTFSSFGMHWVRQAPGKGLEWVAVISFDGSIKYSVDSVKGRFTISRDNSKNTLFLQMNSLRAEDTAVYYCARDRLNYYDSSGYYHYKYYGMAVWGQGTTVTVSS
VL: QSVLTQPPSVSAAPGQKVTISCSGSSSNIGNNYVSWYQQLPGTAPKLLIYDNNKRPSGIPDRFSGSKSGTSTTLGITGLQTGDEADYYCGTWDSRLSAVVFGGGTKLTVL
Q: Which results are given for B1?
A: Abdominal Pain, participants [3]: 0 participants; Constipation, participants [3]: 0 participants; Flatulence, participants [3]: 1 participants; Flatulence, participants (%) [3]: (5.3) %; Headache, participants [3]: 6 participants; Headache, participants (%) [3]: (31.6) %; Nasopharyngitis, participants [3]: 0 participants; Nausea, participants [3]: 0 participants; Somnolence, participants [3]: 0 participants; TEAEs, participants (%) [3]: (42.1) %; Treatment Related AEs, participants (%) [3]: (36.8) %; Upper Abdominal Pain, participants [3]: 0 participants; metabolism by CYP enzymes (CYP enzymes): not metabolized by CYP enzymes

B2: galcanezumab (antibody, chains of the INN, looked up, V domains shown)
VH: QVQLVQSGAEVKKPGSSVKVSCKASGYTFGNYWMQWVRQAPGQGLEWMGAIYEGTGKTVYIQKFADRVTITADKSTSTAYMELSSLRSEDTAVYYCARLSDYVSGFGYWGQGTTVTVSS
VL: DIQMTQSPSSLSASVGDRVTITCRASKDISKYLNWYQQKPGKAPKLLIYYTSGYHSGVPSRFSGSGSGTDFTLTISSLQPEDFATYYCQQGDALPPTFGGGTKVEIK
notes: long-acting CGRP antagonist antibody that targets the CGRP ligand
Q: For B2, which “Abdominal Discomfort, participants” value [4] is on record?
A: 0 participants

Q: And the “Dizziness, participants” value [4]?
A: 0 participants

Q: And the “Headache, participants” value [4]?
A: 3 participants

Q: What about the “Headache, participants (%)” value [4] of the same molecule?
A: (15.0) %

Q: What about the “Hiccups, participants” value [4] of the same molecule?
A: 1 participants

Q: And the “Hiccups, participants (%)” value [4]?
A: (5.0) %

Q: And the “TEAEs, participants (%)” value [4]?
A: (15.0) %

Q: And the “Treatment-related AEs, participants (%)” value [4]?
A: (15.0) %

Q: What about the “Upper Abdominal Pain, participants” value [4] of the same molecule?
A: 0 participants

Q: What about the “metabolism by CYP enzymes” value (CYP enzymes) of the same molecule?
A: not metabolized by CYP enzymes

From patent US20220340650A1, “COMBINATION THERAPY WITH CGRP ANTAGONISTS” (Allergan Pharmaceuticals International Limited, priority 2019, published 2022)
